Values of other authors, collected in article PMC12308805, “Ultrahigh-Throughput Virtual Screening Strategies against PPI Targets: A Case Study of STAT Inhibitors” (Journal of Chemical Information and Modeling, 2025).
Numbered stars: 1 amine (or outer) side, 2 acyl side, 3 side chain; on linkers, the order of the positions; unused ones are H or OH. Square brackets hold non-standard residues; d marks the D form. Peptide text beside a SMILES is read from it. * marks the point of attachment. X2 = O=C([C@H](Cc1ccc(Cc2nn[nH]n2)cc1)N[*:1])[*:2]; pY = N[C@@H](Cc1ccc(OP(=O)(O)O)cc1)C(=O)O; NH(1R-phenylethyl) = C[C@@H](N*)c1ccccc1; Cha = N[C@@H](CC1CCCCC1)C(=O)O

System: STAT3
Conditions: cited from earlier work

SMILES | Type (known STAT3 active)
CC(C)C[C@H](NC(=O)/C=C/c1ccc(OP(=O)(O)O)cc1)C(=O)N1C[C@H]2C[C@H]2[C@H]1C(=O)N[C@H](C)CCC(N)=O [CHEMBL576784] | Active
CC(=O)N[C@@H](Cc1ccc(OP(=O)(O)O)cc1)C(=O)N[C@H]1CCc2cccc3c2N(C1=O)[C@H](C(=O)N[C@@H](CCC(N)=O)C(=O)N[C@H](C(N)=O)[C@@H](C)O)C3 [CHEMBL503765] | Active

Same assay, conditions: sheet 6QHD_actives_decoys, retrospective screening set for STAT3 SH2 domain (PDB 6QHD); decoys are presumed inactives, not tested; ref DUD-E; cited from earlier work

SMILES | Type
C[C@@H](NC(=O)[C@@H](N)Cc1ccc(O)cc1)C(=O)NCC(=O)N[C@@H](Cc1ccccc1)C(=O)NNC(=O)[C@H](Cc1ccccc1)NC(=O)CNC(=O)[C@@H](C)NC(=O)[C@@H](N)Cc1ccc(O)cc1 [Decoy945] | Inactive (Decoy)
C[C@H](N[C@H](C)c1ccc(Cl)s1)c1ccc(Cl)c(Cl)c1Cl [Decoy730] | Inactive (Decoy)
O=C(OC[C@@H]1O[C@H](Oc2ccc(O)cc2COC(=O)[C@@]2(O)[C@@H](O)CCC(=O)[C@@H]2O)[C@H](OC(=O)[C@H]2C=CCC2)[C@H](O)[C@@H]1O)[C@H]1C=CCC1 [Decoy886] | Inactive (Decoy)
CCCOC(=O)c1ccc(OCC(=O)N/N=C(/S)NC(=O)c2ccccc2[N+](=O)[O-])cc1 [Decoy731] | Inactive (Decoy)
CO[C@@H]1[C@H](O)[C@H](OC[C@H]2O[C@@H](O[C@@H]3CC[C@]4(C)[C@H](CC[C@@H]5[C@@H]4CC[C@@]4(C)[C@@H](C6=CC(=O)OC6)CC[C@]54O)C3)[C@@H](O)[C@@H](O)[C@H]2O)O[C@@H](C)[C@@H]1O [Decoy926] | Inactive (Decoy)
C/C(=C(\CCO)SS/C(CCO)=C(\C)N(C=O)Cc1cnc(C)nc1N)N(C=O)Cc1cnc(C)nc1N [Decoy781] | Inactive (Decoy)
CC(C)(C)NS(=O)(=O)c1ccc(NC(=O)CSc2nnc(N/N=C/c3cccc(O)c3)n2N)cc1 [Decoy849] | Inactive (Decoy)
COc1cc([C@H]2c3cc(OC)c(O[C@H]4O[C@@H](CO)[C@@H](O)[C@@H](O)[C@H]4O)c(OC)c3C[C@@H](CO)[C@@H]2CO)cc(OC)c1O [Decoy823] | Inactive (Decoy)
CC(=O)OC[C@@H]1O[C@@H](Oc2cc(O)cc(O)c2C(=O)CCc2ccc([N+](=O)[O-])cc2)[C@@H](OC(C)=O)[C@H](OC(C)=O)[C@H]1OC(C)=O [Decoy880] | Inactive (Decoy)
C/C(=C(/CCO)SS/C(CCO)=C(\C)N(C=O)Cc1cnc(C)nc1N)N(C=O)Cc1cnc(C)nc1N [Decoy780] | Inactive (Decoy)
CC(=O)OC[C@H]1O[C@@H](Oc2cc(O)cc(O)c2C(=O)CCc2ccc([N+](=O)[O-])cc2)[C@@H](OC(C)=O)[C@H](OC(C)=O)[C@H]1OC(C)=O [Decoy881] | Inactive (Decoy)
O[C@H](CNCCOc1ccccc1OCCNC[C@H](O)COc1cccc2[nH]c3ccccc3c12)COc1cccc2[nH]c3ccccc3c12 [Decoy828] | Inactive (Decoy)
CCOc1ccc(-c2nn(-c3ccccc3)cc2C2C(C(=O)OCCOC)=C(C)NC(C)=C2C(=O)OCCOC)cc1C [Decoy832] | Inactive (Decoy)
COC(=O)c1[nH]c(C)c(C(=O)C2=C(O)C(=O)N(CCN3CCOCC3)[C@@H]2c2cc(OC)c(OC)c(OC)c2)c1C [Decoy872] | Inactive (Decoy)
CC(/C=C/C=C(\C)C(=O)O)=C\C=C\C=C(C)\C=C\C=C(/C)C(=O)O[C@@H]1O[C@H](CO[C@@H]2O[C@H](CO)[C@@H](O)[C@H](O)[C@H]2O)[C@@H](O)[C@H](O)[C@H]1O [Decoy785] | Inactive (Decoy)
COc1cc(/C=N/N=C2\NC(=O)[C@H](CC(=O)O)S2)cc(Br)c1OS(=O)(=O)c1ccc(NC(C)=O)cc1 [Decoy786] | Inactive (Decoy)
COc1ccc(CCN/C(=N/c2nc(C)cc(C)n2)NS(=O)(=O)c2ccc(Br)cc2)cc1OC [Decoy898] | Inactive (Decoy)
COCCOC(=O)C1=C(C)NC(SCC(=O)Nc2ccc([N+](=O)[O-])cc2)=C(C#N)[C@@H]1c1ccco1 [Decoy833] | Inactive (Decoy)
COc1cc(C(=O)O)ccc1O[C@@H]1O[C@H](COC(=O)c2ccc(O)c(O)c2)[C@@H](O)[C@H](O)[C@H]1O [Decoy842] | Inactive (Decoy)
OC[C@@H]1O[C@H](O[C@H]2O[C@H](CO)[C@H](O)[C@H](OCc3ccccc3)[C@@H]2OCc2ccccc2)[C@H](OCc2ccccc2)[C@H](OCc2ccccc2)[C@@H]1O [Decoy949] | Inactive (Decoy)
CC1(C)CC[C@]2(C(=O)O[C@@H]3O[C@H](CO)[C@@H](O)[C@H](O)[C@H]3O)CC[C@]3(C)C(=CC[C@H]4[C@@]5(C)CC[C@H](O[C@H]6OC[C@@H](O)[C@@H](O)[C@@H]6O)[C@@](C)(CO)[C@H]5CC[C@]43C)[C@@H]2C1 [Decoy930] | Inactive (Decoy)
COc1cc(C(=O)OC[C@]2(O)CO[C@H](OC[C@@H]3O[C@@H](Oc4c(OC)cc(CO)cc4OC)[C@H](O)[C@H](O)[C@@H]3O)[C@@H]2O)cc(OC)c1O [Decoy800] | Inactive (Decoy)

Same assay, conditions: sheet 6QHD_actives_decoys; known STAT3 actives of the retrospective screening set; ref ChEMBL / literature; cited from earlier work

SMILES | Type (known STAT3 active)
CC(=O)NC[C@H](CCC(N)=O)NC(=O)[C@@H]1CCCN1C(=O)[C@H](CC(C)C)NC(=O)/C=C/c1ccc(OP(=O)(O)O)cc1 [CHEMBL573442] | Active
CC(=O)N[C@@H](Cc1ccc(OP(=O)(O)O)cc1)C(=O)N[C@@H](CC(C)C)C(=O)N1CCC[C@H]1C(=O)N[C@@H](CCC(N)=O)C(=O)N[C@H](C)c1ccccc1 [CHEMBL193433] (Ac-[pY]LPQ-{NH(1R-phenylethyl)}) | Active
CC(C)C[C@H](NC(=O)/C=C/c1ccc(OP(=O)(O)O)cc1)C(=O)N1CCC[C@H]1C(=O)N[C@@H](CCC(N)=O)C(=O)NCc1ccccc1 [CHEMBL267246] | Active
CC(=O)N[C@@H](Cc1ccc(Cc2nn[nH]n2)cc1)C(=O)N[C@@H](CC(C)C)C(=O)N1CCC[C@H]1C(=O)N[C@@H](CCC(N)=O)C(=O)N[C@H](C(=O)N[C@H](C(=O)O)C(C)C)[C@@H](C)O [CHEMBL233355] (Ac-[X2]LPQTV-OH) | Active
CC(=O)N[C@@H](Cc1ccc(OP(=O)(O)O)cc1)C(=O)N[C@@H](CC1CCCCC1)C(=O)N1CCC[C@H]1C(=O)N[C@@H](CCC(N)=O)C(=O)N[C@H](C(N)=O)[C@@H](C)O [CHEMBL371871] (Ac-[pY][Cha]PQT-NH2) | Active

Same assay, conditions: sheet 6QHD_actives_decoys; retrospective screening set for STAT3 SH2 domain (PDB 6QHD); […]; ref DUD-E; cited from earlier work

SMILES | Type
O=C(NCCNc1ccc(C(F)(F)F)cc1[N+](=O)[O-])c1ccc(CSc2ncn[nH]2)cc1 [Decoy448] | Inactive (Decoy)
COc1cc([N+](=O)[O-])ccc1NC(=S)Nc1ccc(S(=O)(=O)Nc2ccc(Cl)nn2)cc1 [Decoy332] | Inactive (Decoy)
CCN1C(=O)[C@@](C)(C(=O)Nc2ccc(S(=O)(=O)Nc3nccs3)cc2)Oc2ccccc21 [Decoy608] | Inactive (Decoy)
COc1ccccc1/C=C/C(=O)NC(=S)Nc1ccc(S(=O)(=O)Nc2cc(C)on2)cc1 [Decoy519] | Inactive (Decoy)

Same assay, conditions: sheet 6QHD_actives_decoys; retrospective screening set for STAT3 SH2 domain (PDB 6QHD); decoys generated with DUD-E and presumed inactive, not tested; ref DUD-E; cited from earlier work

SMILES | Type
Cc1ccc(S(=O)(=O)NCC(=O)N/N=C/c2ccc(OC(=O)c3ccccc3)cc2OC(=O)c2ccccc2)cc1 [Decoy602] | Inactive (Decoy)
COc1cc2cc(Oc3ccc(CCC(=O)O)c(O[C@@H]4O[C@H](CO)[C@@H](O)[C@H](O)[C@H]4O)c3)c(=O)oc2cc1O [Decoy393] | Inactive (Decoy)
Nc1nc(OCc2cc(Br)cs2)c2ncn(CCCCCCCCO[C@@H]3O[C@@H](CO)[C@@H](O)[C@@H](O)[C@@H]3O)c2n1 [Decoy329] | Inactive (Decoy)
COc1ccc(-c2cc(=O)c3c(O)c(OC)c(O[C@@H]4O[C@H](CO[C@@H]5O[C@@H](C)[C@H](O)[C@@H](O)[C@H]5O)[C@@H](O)[C@H](O)[C@H]4O)cc3o2)cc1 [Decoy661] | Inactive (Decoy)
CCCCCCCCCC(=O)O[C@@H]1[C@@H](O[C@@]2(CO)O[C@@H](CO)[C@@H](O)[C@H]2OC(=O)C(C)C)O[C@@H](CO)[C@@H](OC(=O)C(C)C)[C@H]1OC(=O)C(C)C [Decoy627] | Inactive (Decoy)
C=C[C@H]1[C@H](O[C@H]2O[C@@H](CO)[C@@H](O)[C@@H](O)[C@H]2O)OC=C(C(=O)OC)[C@H]1CCOC(=O)c1cc(O)c(O)c(O)c1 [Decoy700] | Inactive (Decoy)
NCCCCCCNc1ncnc2c1ncn2[C@@H]1O[C@H](COP(=O)(O)O)[C@@H](OP(=O)(O)O)[C@H]1O [Decoy505] | Inactive (Decoy)
CC(=O)O[C@@H]1[C@@H](O)[C@@H](O[C@@H](/C=N\N2CCOCC2)[C@@H](CO)O[C@H](O)/C=N/N2CCOCC2)O[C@@H](CO)[C@H]1O [Decoy660] | Inactive (Decoy)
C=C[C@@](C)(CC/C=C(\C)CC/C=C(\C)C[C@H](O)/C=C(\C)C(=O)O)O[C@@H]1O[C@H](CO)[C@@H](O)[C@H](O)[C@H]1O[C@@H]1O[C@H](CO)[C@@H](O)[C@H](O)[C@H]1O [Decoy688] | Inactive (Decoy)
CC(=O)OC[C@@H]1O[C@H](O)[C@H](OC(C)=O)[C@H](OC(C)=O)[C@@H]1O[C@@H]1O[C@H](COC(C)=O)[C@@H](O)[C@H](OC(C)=O)[C@@H]1OC(C)=O [Decoy413] | Inactive (Decoy)
CC(=O)N[C@H]1[C@H](O[C@H]2[C@H](O[C@H](C)C(=O)O)[C@@H](NC(C)=O)[C@@H](OC(C)=O)O[C@@H]2COC(C)=O)O[C@H](COC(C)=O)[C@@H](OC(C)=O)[C@@H]1OC(C)=O [Decoy458] | Inactive (Decoy)
CCCc1nc(C(C)(C)O[C@@H]2O[C@H](C(=O)O)[C@@H](O)[C@H](O)[C@H]2O)c(C(=O)O)n1Cc1ccc(-c2ccccc2-c2nnn[nH]2)cc1 [Decoy521] | Inactive (Decoy)
C[C@@]12CCC[C@@](C)(C(=O)O[C@@H]3O[C@@H](CO)[C@@H](O)[C@@H](O)[C@H]3O)[C@H]1CC[C@]13C[C@H](CC[C@H]12)[C@@](CO)(O[C@@H]1O[C@@H](CO)[C@@H](O)[C@@H](O)[C@H]1O)C3 [Decoy524] | Inactive (Decoy)
CCSc1nnc(/N=C(\O)CSc2n[nH]c(N/N=C/c3cn(C)nc3C)n2)s1 [Decoy414] | Inactive (Decoy)
COC(=O)c1cc(NC(=S)/N=C(/NCCN2CCOCC2)Nc2nc(C)cc(C)n2)cc(C(=O)OC)c1 [Decoy366] | Inactive (Decoy)
